Results: BindingDB's records for patent US20240025919 (Genentech, 2024)

Assays:
[1] = molecular target: GTPase KRas (Homo sapiens, UniProt P01116); test: KRAS WT Biochemical Assay
Method: Biochemical compound potencies are assessed by evaluating inhibition of SOS1-mediated nucleotide exchange in KRAS WT. In this assay, the SOS1-promoted exchange of fluorescently-labeled GDP (BOPIDY-GDP) is monitored by time-resolved fluorescence resonance energy transfer (TR-FRET). Compounds solubilized in DMSO are dispensed as concentration series into 384-well white assay plates. A preformed complex of 0.06 nM biotin-tagged recombinant human KRAS WT, 15 nM GDP and 0.06 nM terbium-labeled streptavidin (CisBIO) prepared in 10 uL/well assay buffer (20 mM HEPES, pH 7.5, 50 mM NaCl, 10 mM MgCl2, 0.01% Tween-20 and 1 mM dithiothreitol) is added and allowed to incubate for 10-minutes at room temperature. The reaction is initiated with the addition of 5 uL 300 nM recombinant human SOS1 and 300 nM BODIPY-GDP in assay buffer. After a 120-minute incubation, the fluorescence is measured with excitation at 337 nm and emission at 490 and 520 nm.

[2] = molecular target: GTPase KRas [G12D] (Homo sapiens, UniProt P01116, G12D); test: KRAS G12D LoEnz Biochemical Assay
Method: Biochemical compound potencies are assessed by evaluating inhibition of SOS1I-mediated nucleotide exchange in KRAS […]. In this assay, the SOS1-promoted exchange of fluorescently-labeled GDP (BOPIDY-GDP) is monitored by time-resolved fluorescence resonance energy transfer (TR-FRET). Compounds solubilized in DMS0 are dispensed as concentration series into 384-well white assay plates. A preformed complex of biotin-tagged recombinant human KRAS (0.06 nM mutant G1 2D) and 0.06 nM terbium-labeled streptavidin (CisBIO) prepared in 10 uL/well assay buffer (20 mM HEPES, pH 7.5, 50 mM NaCl, 10 mMMMgCl2, 0.0100 Tween-20 and 1 mM dithiothreitol) is added and allowed to incubate for 10-minutes at room temperature. The reaction is initiated with the addition of 5 uL 300 nM recombinant human SOS1 and 300 nM BODIPY-GDP in assay buffer. After a 120-minute incubation, the fluorescence is measured with excitation at 337 nm and emission at 490 and 520 nm. The TR-FRET ratio is determined as the fluorescence at 520 nm divided by the fluorescence at 490 nm multiplied by 10,000. The results are normalized to percent inhibition based on control samples: DMSO (0% inhibition) and control compound at a concentration that inhibits completely (100% inhibition).

Sequence of GTPase KRas [G12D] (P01116 whole entry G12D): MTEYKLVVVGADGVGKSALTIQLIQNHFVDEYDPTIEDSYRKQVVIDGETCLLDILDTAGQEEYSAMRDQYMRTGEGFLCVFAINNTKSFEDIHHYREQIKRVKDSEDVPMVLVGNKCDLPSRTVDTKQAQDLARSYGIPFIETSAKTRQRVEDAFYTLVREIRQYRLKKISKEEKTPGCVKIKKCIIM
Sequence of GTPase KRas (P01116 whole entry): as the sequence (P01116 whole entry G12D) above, with D12G counted along it

SMILES	IC50 [1] [nM]	IC50 [2] [nM]
Fc1c(-c2cccc3cccc(Cl)c23)nc2c3c(nc(OC[C@@]45CCCN4C[C@H](F)C5)nc13)N1C[C@H]3CC[C@H](N3)[C@H]1CO2 [US20240025919, Compound 2]	922	15.2
C#Cc1c(F)ccc2cccc(-c3nc4c5c(nc(OCC67CCN6CC(F)(F)C7)nc5c3F)N3C[C@H]5CC[C@H](N5)[C@H]3[C@H](C)O4)c12 (some centres undefined) [US20240025919, Compound 22]	–	2.99
C[C@@H]1Oc2nc(-c3cc(N)c(F)c(F)c3CC(F)F)c(F)c3cc(OC[C@@H]4CC[C@H]5COCCN54)nc(c23)N2C[C@H]3CC[C@H](N3)[C@@H]12 [US20240025919, Compound 158]	–	3.39
